Experimental data: patent publication US20240009191A1, “METHOD AND COMPOSITION FOR THE TREATMENT OF DISEASE” (DIMERIX BIOSCIENCE PTY LTD, priority 2019, published 2024)

Columns and labels:
Type in all cases: cell-based
[1] = biological target: T1, AT1R and CXCR2 (Homo sapiens, UniProt P25025+P30556); assay: IP1 accumulation, HEK293 cells stably-expressing CXCR2 and transiently-transfected with AT1R
T1 sequence (P30556 1-359): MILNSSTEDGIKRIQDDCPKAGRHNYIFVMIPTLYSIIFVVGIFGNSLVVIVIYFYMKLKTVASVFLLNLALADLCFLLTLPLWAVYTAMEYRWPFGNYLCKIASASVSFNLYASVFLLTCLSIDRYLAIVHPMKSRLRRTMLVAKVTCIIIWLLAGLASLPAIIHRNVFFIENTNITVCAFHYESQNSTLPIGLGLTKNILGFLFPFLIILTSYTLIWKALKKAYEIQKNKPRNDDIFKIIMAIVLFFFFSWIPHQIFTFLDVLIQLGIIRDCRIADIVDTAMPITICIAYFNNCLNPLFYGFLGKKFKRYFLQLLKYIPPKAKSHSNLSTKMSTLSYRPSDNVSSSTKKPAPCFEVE
T1 sequence (P25025 1-360): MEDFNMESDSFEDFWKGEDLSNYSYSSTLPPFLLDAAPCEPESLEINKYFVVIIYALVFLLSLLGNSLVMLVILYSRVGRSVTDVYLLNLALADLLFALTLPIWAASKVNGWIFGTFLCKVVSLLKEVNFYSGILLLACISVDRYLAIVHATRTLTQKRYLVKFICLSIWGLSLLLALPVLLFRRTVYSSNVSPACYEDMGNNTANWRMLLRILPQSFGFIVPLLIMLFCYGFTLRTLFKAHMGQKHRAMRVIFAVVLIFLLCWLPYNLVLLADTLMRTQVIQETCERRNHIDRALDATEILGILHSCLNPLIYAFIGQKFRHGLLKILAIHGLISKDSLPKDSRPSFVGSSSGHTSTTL

[2] = biological target: T2, CXCR2 (Homo sapiens, UniProt P25025); assay: BRET Gi coupling, CXCR2/Rluc8 and Venus/mGsi without HA-AT1R, HEK293FT cells; details: 100 nM CXCL8, 1 μM AngII, FIG. 1A
T2 sequence (P25025 1-360): T1 sequence (P25025 1-360)
Method: (§1) HEK293FT cells were seeded in 6-well plates at a density of approximately 700,000 cells/well and maintained at 37° C., 5% CO2 in Complete Media (DMEM containing 0.3 mg/ml glutamine, 100 IU/ml penicillin and 100 μg/ml streptomycin (Gibco/Thermo Fisher)) supplemented with 10% fetal calf serum (FCS; Bovogen). Transient transfections were carried out 24 h after seeding using FuGene6™ (Promega) according to manufacturer instructions. 24 h post-transfection, cells were washed with PBS, detached using 0.05% trypsin/0.53 mM EDTA, resuspended in HEPES-buffered phenol red free Complete Media containing 5% FCS and added to a poly-L-lysine-coated white 96-well microplate (Greiner Bio-One). 48 h post-transfection, bioluminescence resonance energy transfer (BRET) assays were carried out following pre-incubation of cells with EnduRen™ (Promega) at a final concentration of 30 μM, at 37° C., 5% CO2 for 2 h. BRET measurements were taken at 37° C. using the LUMlstar™ or CLARIOstar™ (BMG Labtech). Filtered light emissions were measured for 1 s in each of the ‘donor wavelength window’ (460-490 nm for LUMlstar™ or 410-490 nm for CLARIOstar™) and ‘acceptor wavelength window’ (520-550 nm for LUMlstar™ or 520-620 nm for CLARIOstar™).
The BRET signal observed between interacting proteins is normalized by subtracting the background BRET ratio. […]

[3] = biological target: T3, AT1R-CXCR2 heteromer (Homo sapiens, UniProt P25025+P30556); assay: BRET trafficking of CXCR2/Rluc8 (Venus/Kras, Rab5, Rab8) with HA-AT1R, pre-treatment with vehicle or antagonists/inverse agonists
T3 sequence (P25025 1-360): T1 sequence (P25025 1-360)
T3 sequence (P30556 1-359): T1 sequence (P30556 1-359)
Method: as §1, with “Labtech).” for “Labtech). Filtered light emissions were measured for 1 s in each of the ‘donor wavelength window’ (460-490 nm for LUMlstar™ or 410-490 nm for CLARIOstar™) and ‘acceptor wavelength window’ (520-550 nm for LUMlstar™ or 520-620 nm for CLARIOstar™).”
For antagonist/inverse agonist assays, cells were pre-incubated with EnduRen for 1.5 hours, followed by the addition of vehicle or antagonists/inverse agonists (10 μM) for another 30 minutes.
The BRET signal observed between interacting proteins is normalized by subtracting the background BRET ratio. […] In the following examples, the second calculation will be used and the signal is described as ligand-induced BRET′. Furthermore, for data shown in FIGS. 4 to 20, all data points in a given set are corrected relative to the final data point prior to agonist treatment, which is fixed to zero. In keys on FIGS. 7 to 20, “>” means “followed by after 50 minutes”, with agonists added at time zero on the x-axes.
Prior to agonist treatment (added at 0 minutes), a baseline BRET signal was recorded for each of the combinations for 20 minutes. Data were calculated as ligand-induced BRET relative to the ‘vehicle followed by vehicle’ (veh>veh) data set.

Substance: Angiotensin II [AngII]
- Rmax, IP1 accumulation [1]: 209 nM
- ligand-induced BRET signal, CXCR2/Rluc8 and Venus/mGsi [2]: did not result in an increase
- proximity of CXCR2/Rluc8 to Venus/Kras (BRET) [3]: increased proximity
- proximity of CXCR2/Rluc8 to Venus/Rab5 (BRET) [3]: very small increase
- proximity of CXCR2/Rluc8 to Venus/Rab8 (BRET) [3]: clear increase
